Experimental data reported in publication PMC7915026, “Sulfaguanidine Hybrid with Some New Pyridine-2-One Derivatives: Design, Synthesis, and Antimicrobial Activity against Multidrug-Resistant Bacteria as Dual DNA Gyrase and DHFR Inhibitors” (Antibiotics, 2021).
In brackets after ≈: the same amount, converted by molar mass. Read-outs that look alike come from different tables or passages of the source.

Key:
[1] = system: B. subtilis ATCC 6633; assay: Inhibition zone, paper disk/agar diffusion; type: cell-based; settings: B. subtilis; Na = no activity
Summary of the method: (§1)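 Activity was tested by the agar plate diffusion method. The read-out is the diameter (mm) of the inhibition zone around each tested derivative, with norfloxacin as the positive control.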

[2] = system: C. albicans (ATCC 10231); assay: Inhibition zone, paper disk/agar diffusion; type: cell-based; settings: Na = no activity
Summary of the method: as §1

[3] = system: E. faecalis ATCC 29212; assay: Inhibition zone, paper disk/agar diffusion; type: cell-based; settings: E. faecalis; Na = no activity
Summary of the method: as §1

[4] = system: F. oxysporum (RCMB 008002); assay: Inhibition zone, paper disk/agar diffusion; type: cell-based; settings: Na = no activity
Summary of the method: as §1

[5] = system: P. aeruginosa ATCC 27853; assay: Inhibition zone, paper disk/agar diffusion; type: cell-based; settings: P. aeruginosa; Na = no activity
Summary of the method: as §1

[6] = system: S. aureus ATCC 29213; assay: Inhibition zone, paper disk/agar diffusion; type: cell-based; settings: S. aureus; Na = no activity
Summary of the method: as §1

[7] = system: S. typhi ATCC 6539; assay: Inhibition zone, paper disk/agar diffusion; type: cell-based; settings: S. typhi; Na = no activity
Summary of the method: as §1

[8] = system: B. subtilis ATCC 6633; assay: MIC and MBC determination; type: cell-based; settings: Bacillus subtilis, ATCC6633, B. subtilis
[9] = system: S. aureus ATCC 29213; assay: MIC and MBC determination; type: cell-based; settings: S. aureus
[10] = system: E. faecalis ATCC 29212; assay: MIC and MBC determination; type: cell-based; settings: Enterococcus faecalis, ATCC29212, E. faecalis
[11] = system: E. coli ATCC 25922; assay: MIC and MBC determination; type: cell-based; settings: Escherichia coli, ATCC25922, E. coli
[12] = system: P. aeruginosa ATCC 27853; assay: MIC and MBC determination; type: cell-based; settings: Pseudomonas aeruginosa, ATCC27853, P. aeruginosa
[13] = system: Salmonella typhi (S. typhi ATCC 6539); assay: microbe, parasite or virus in culture; type: cell-based; settings: Salmonella enterica, Salmonella typhi
[14] = system: C. albicans (ATCC 10231); assay: MIC and MFC determination; type: cell-based
[15] = system: F. oxysporum (RCMB 008002); assay: MIC and MFC determination; type: cell-based
[16] = system: E. coli ATCC BAA-196; assay: Inhibition zone against multidrug-resistant bacteria; type: cell-based; settings: MDRB E. coli ATCC BAA-196
Description: (§2) Norfloxacin was used as a positive control for the multidrug resistance study.
(§3) The antimicrobial activity performed at the bacteriology laboratory, Botany and Microbiology Department, Faculty of Science, Al-Azhar University, Cairo, Egypt. The inhibition zone (IZ) of the tested derivatives expressed as the diameter (mm) according to the agar plate diffusion method.

[17] = system: P. aeruginosa ATCC BAA-2111; assay: as above; type: cell-based; settings: MDRB P. aeruginosa ATCC BAA-2111
Description: as §2, §3

[18] = system: S. aureus ATCC 33591; assay: as above; type: cell-based; settings: MDRB S. aureus ATCC 33591
Description: as §2, §3

[19] = system: S. aureus ATCC 43300; assay: as above; type: cell-based; settings: MDRB S. aureus ATCC 43300
Description: as §2, §3

[20] = system: E. coli ATCC BAA-196; assay: MIC and MBC against multidrug-resistant strains; type: cell-based; settings: Escherichia coli, ATCCBAA196, E. coli ATCC BAA-196
Description: as §2
(§4) The experiment was repeating for three-times.

[21] = system: P. aeruginosa ATCC BAA-2111; assay: MIC and MBC against multidrug-resistant strains; type: cell-based; settings: Pseudomonas aeruginosa, ATCCBAA2111, P. aeruginosa ATCC BAA-2111
Description: as §2, §4

[22] = system: S. aureus ATCC 33591; assay: MIC and MBC against multidrug-resistant strains; type: cell-based; settings: Staphylococcus aureus, ATCC33591, S. aureus ATCC 33591
Description: as §2, §4

[23] = system: S. aureus ATCC 43300; assay: MIC and MBC against multidrug-resistant strains; type: cell-based; settings: Staphylococcus aureus, ATCC43300, S. aureus ATCC 43300
Description: as §2, §4

[24] = biological target: S. aureus DNA gyrase (Staphylococcus aureus, UniProt P0A0K8+P20831); assay: In vitro DNA gyrase supercoiling enzymatic assay; type: biochemical
S. aureus DNA gyrase, sequence (P20831 whole entry): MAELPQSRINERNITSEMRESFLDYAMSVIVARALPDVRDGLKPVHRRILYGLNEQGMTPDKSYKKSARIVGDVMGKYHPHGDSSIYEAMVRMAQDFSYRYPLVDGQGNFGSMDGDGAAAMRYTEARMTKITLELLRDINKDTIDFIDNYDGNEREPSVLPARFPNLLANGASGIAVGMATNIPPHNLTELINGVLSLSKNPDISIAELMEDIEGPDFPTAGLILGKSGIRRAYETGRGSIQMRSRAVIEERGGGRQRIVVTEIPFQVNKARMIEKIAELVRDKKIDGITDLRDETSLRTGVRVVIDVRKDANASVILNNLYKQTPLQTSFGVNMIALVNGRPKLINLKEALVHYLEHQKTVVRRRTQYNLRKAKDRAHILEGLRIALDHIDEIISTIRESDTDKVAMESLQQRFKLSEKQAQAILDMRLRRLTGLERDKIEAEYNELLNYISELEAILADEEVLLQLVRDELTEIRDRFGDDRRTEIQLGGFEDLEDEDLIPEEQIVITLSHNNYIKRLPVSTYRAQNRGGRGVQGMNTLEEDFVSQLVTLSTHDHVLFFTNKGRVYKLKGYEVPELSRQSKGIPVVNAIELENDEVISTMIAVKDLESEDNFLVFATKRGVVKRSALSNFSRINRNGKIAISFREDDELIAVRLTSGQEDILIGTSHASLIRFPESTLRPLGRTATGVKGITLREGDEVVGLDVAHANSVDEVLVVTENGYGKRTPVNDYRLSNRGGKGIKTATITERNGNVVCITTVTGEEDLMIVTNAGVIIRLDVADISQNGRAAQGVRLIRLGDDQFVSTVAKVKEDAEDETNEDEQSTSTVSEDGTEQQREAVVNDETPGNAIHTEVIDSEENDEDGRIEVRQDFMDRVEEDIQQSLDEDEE
S. aureus DNA gyrase, sequence (P0A0K8 whole entry): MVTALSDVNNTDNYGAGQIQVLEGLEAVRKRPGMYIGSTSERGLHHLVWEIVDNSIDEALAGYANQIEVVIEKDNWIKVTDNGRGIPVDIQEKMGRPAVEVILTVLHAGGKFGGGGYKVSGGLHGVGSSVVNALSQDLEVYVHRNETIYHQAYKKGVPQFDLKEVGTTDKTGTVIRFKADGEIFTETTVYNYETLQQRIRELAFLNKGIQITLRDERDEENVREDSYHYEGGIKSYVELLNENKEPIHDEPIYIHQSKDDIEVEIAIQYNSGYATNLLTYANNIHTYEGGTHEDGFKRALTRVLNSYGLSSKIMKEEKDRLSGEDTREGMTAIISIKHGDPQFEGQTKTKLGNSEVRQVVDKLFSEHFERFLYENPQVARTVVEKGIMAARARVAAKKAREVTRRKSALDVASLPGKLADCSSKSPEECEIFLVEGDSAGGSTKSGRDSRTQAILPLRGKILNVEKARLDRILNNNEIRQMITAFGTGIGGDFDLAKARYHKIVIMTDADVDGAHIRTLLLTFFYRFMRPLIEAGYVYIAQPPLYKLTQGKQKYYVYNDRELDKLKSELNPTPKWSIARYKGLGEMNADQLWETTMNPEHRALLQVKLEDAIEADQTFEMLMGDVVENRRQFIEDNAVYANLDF

[25] = biological target: E. coli DHFR (dihydrofolate reductase) (Escherichia coli, UniProt P0ABQ4); assay: In vitro DHFR enzymatic assay; type: biochemical
E. coli DHFR (dihydrofolate reductase), sequence (P0ABQ4 whole entry): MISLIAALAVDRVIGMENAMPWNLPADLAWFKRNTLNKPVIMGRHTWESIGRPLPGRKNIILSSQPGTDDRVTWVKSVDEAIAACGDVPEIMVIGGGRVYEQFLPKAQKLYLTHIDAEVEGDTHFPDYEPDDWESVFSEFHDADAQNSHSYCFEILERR

[26] = system: neutrophils; assay: In vitro intracellular killing, nitro blue tetrazolium (NBT) reduction assay; type: cell-based
Protocol: One of the broad methods used for determining immune disorders for patients in hospitals is the NBT test to measure their immune responses. The reduction in NBT dye provides information about the phagocytic and intracellular killing functions of neutrophils, which are important for microbiocidal activity. The most promising derivatives (2a, 2b, 2d, 3a, 8, and 11) were evaluated against in vitro intracellular killing activities using a nitro blue tetrazolium (NBT) reduction assay and the obtained results expressed in percentage (%): increasing the percentage led to an improvement in the killing ability of the neutrophils used as innate immunity.
(§5) In vitro intracellular killing activities for the most promising six derivatives 2a, 2b, 2d, 3a, 8, and 11 were performed according to reported methods.

[27] = system: spleen and thymus; assay: In vivo immunomodulation: immune organ weight and indexes; parameters: Spleen index: unit not given here; settings: mice
Description: Both the spleen and thymus have important antibacterial and fungal immune organ responses, and any change in weight, and indexes can reflect the level of immune regulation. Additionally, the relative spleen and thymus indexes are important indices for nonspecific immunity and potential immunomodulatory compounds that increase the spleen and thymus weight. This increase is due to immune cells’ stimulation in the spleen and thymus. […]

[28] = system: CD4+ and CD8+ T lymphocytes; assay: In vivo T lymphocyte subsets from peripheral blood, flow cytometry; settings: mice
Description: Activation of immune cells as CD4^+ and CD8^+ T cells is one possible mechanism of a drug’s immune stimulus activity. An increase in these cells is thought to be a good indicator of an active immune response to infections. So, our work extended to study the effect of the most promising derivatives (2d, 8, and 11) on T lymphocyte subsets (CD4^+ and CD8^+) from peripheral blood, and determined the relative level in model mice that analyzed by flow cytometry after the period of treating.
as §5

## Cc1cc(C)n(-c2ccc(S(=O)(=O)NC(=N)N)cc2)c(=O)c1C#N [Compound 8, N-Carbamimidoyl-4-(3-cyano-4,6-dimethyl-2-oxopyridin-1(2H)-yl) benzenesulfonamide]
[1]
  Mean Diameter of the Inhibition Zone: 27 ± 0.50 mm
[2]
  Mean Diameter of the Inhibition Zone: 24 ± 0.30 mm
[3]
  Mean Diameter of the Inhibition Zone: 25 ± 0.33 mm
[4]
  Mean Diameter of the Inhibition Zone: 20 ± 0.82 mm
[5]
  Mean Diameter of the Inhibition Zone: 25 ± 0.85 mm
[6]
  Mean Diameter of the Inhibition Zone: 26 ± 0.14 mm
[7]
  Mean Diameter of the Inhibition Zone: 23 ± 0.11 mm
[8]; read-out: MBC
  MBC: 30.6 ± 1.78 µM (≈ 10.6 µg/mL)
[8]; read-out: MIC
  MIC: 16.1 ± 0.54 µM (≈ 5.57 µg/mL)
[9]
  MBC: 10.71 ± 0.36 µM (≈ 3.7 µg/mL)
  MIC: 5.64 ± 0.58 µM (≈ 1.95 µg/mL)
[9]; Staphylococcus aureus, ATCC29213, read-out: MBC
  MBC: 10.7 µM (≈ 3.7 µg/mL)
[9]; Staphylococcus aureus, ATCC29213, read-out: MIC
  MIC: 5.64 µM (≈ 1.95 µg/mL)
[10]; read-out: MBC
  MBC: 19.19 ± 0.18 µM (≈ 6.63 µg/mL)
[10]; read-out: MIC
  MIC: 11.3 ± 0.52 µM (≈ 3.9 µg/mL)
[11]; read-out: MBC
  MBC: 36.2 ± 0.42 µM (≈ 12.5 µg/mL)
[11]; read-out: MIC
  MIC: 22.6 ± 0.42 µM (≈ 7.81 µg/mL)
[12]; read-out: MBC
  MBC: 172 ± 1.95 µM (≈ 59.4 µg/mL)
[12]; read-out: MIC
  MIC: 90.5 ± 1.07 µM (≈ 31.3 µg/mL)
[13]; read-out: MBC
  MBC: 19.19 ± 0.14 µM (≈ 6.63 µg/mL)
[13]; read-out: MIC
  MIC: 11.3 ± 0.75 µM (≈ 3.9 µg/mL)
[14]
  MFC/MIC: <2
[14]; Candida albicans, ATCC10231, read-out: MFC
  MFC: 81.4 ± 0.84 µM (≈ 28.1 µg/mL)
[14]; Candida albicans, ATCC10231, read-out: MIC
  MIC: 45.2 ± 0.54 µM (≈ 15.6 µg/mL)
[15]
  MFC/MIC: <2
[15]; Fusarium oxysporum, RCMB008002, read-out: MFC
  MFC: 136 ± 1.98 µM (≈ 46.9 µg/mL)
[15]; Fusarium oxysporum, RCMB008002, read-out: MIC
  MIC: 90.48 ± 0.84 µM (≈ 31.3 µg/mL)
[16]
  Mean Diameter of Inhibition Zone: 20 ± 0.74 mm
[17]
  Mean Diameter of Inhibition Zone: 21 ± 0.63 mm
[18]
  Mean Diameter of Inhibition Zone: 15 ± 0.33 mm
[19]
  Mean Diameter of Inhibition Zone: 22 ± 0.5 mm
[20]; read-out: MBC
  MBC: 53.56 ± 0.41 µM (≈ 18.5 µg/mL)
[20]; read-out: MIC
  MIC: 26.8 ± 0.65 µM (≈ 9.25 µg/mL)
[21]; read-out: MBC
  MBC: 45.2 ± 0.87 µM (≈ 15.6 µg/mL)
[21]; read-out: MIC
  MIC: 22.6 ± 0.98 µM (≈ 7.81 µg/mL)
[22]; read-out: MBC
  MBC: 46.3 ± 0.58 µM (≈ 16 µg/mL)
[22]; read-out: MIC
  MIC: 25.7 ± 0.36 µM (≈ 8.88 µg/mL)
[23]; read-out: MBC
  MBC: 34.36 ± 0.24 µM (≈ 11.9 µg/mL)
[23]; read-out: MIC
  MIC: 18.1 ± 0.84 µM (≈ 6.25 µg/mL)
[24]
  IC50: 39.1 ± 1.72 µM
[25]
  IC50: 12.3 ± 0.73 µM
[26]
  Intracellular Killing Activity: 136.5 ± 0.3%
[27]
  Spleen index: 0.010 ± 0.00
  Spleen weight: 200 ± 0.025 mg
  Thymus index: 0.537 ± 0.14 mg/g
  Thymus weight: 13.42 ± 0.46 mg
[28]
  T cells CD4+: 78.70 ± 0.56%
  T cells CD8+: 18.44 ± 0.2%
